# Source: patent publication US20060247260A1, “Bis (hetero) aryl carboxamide derivatives for use as PG12 antagonists” (BAYER HEALTHCARE AG, priority 2003, published 2006)
# Experiments:
# PGI2 receptor = target: T1, PGI2 receptor (Homo sapiens, UniProt P43119); experiment: PGI2 receptor binding/cAMP in HEL cells (in vitro activity grade); settings: compounds of purity about 40 to 90%
# T1 construct: host or cells: HEL 92.1.7 human erythroleukemia cells (whole cells)
# Experimental: [Measurement of the [^3H]-Iloprost Binding to HEL Cells] (Assay 1) A human erythloleukemia cell line, HEL 92.1.7, was purchased from American Type Culture Correction and maintained in RPMI-1640 medium (Gibco BRL) supplemented with 10% fetal calf serum (FCS), 2 mM glutamine, 4.5 g/L glucose, 10 mM Hepes, 1 mM sodium pyruvate, 100 U/ml penicillin, and 100 μg/ml streptomycin in a humidified 5% CO2 atmosphere at 37° C. Cells were collected with centrifugation and washed with binding assay buffer (BAB: 50 mM Tris-HCl, 5 mM MgCl2 (pH 7.5)). Cells were suspended at the density of 6.25×10^6 cells/ml in BAB, and one million cells in 160 μl aliquot of cell suspension were put in a well of 96 well plate (Falcon). Then, 20 μl of compound solution, 100 μM of iloprost (for non-specific binding), or buffer alone (total binding), diluted with 1% DMSO in BAB was added. Finally, another 20 μl containing [^3H]-iloprost (0.02 μCi, 0.5-1 pmol) in BAB was added and incubated at room temperature for 30 min with a gentle shaking. Cell suspension was then transferred to a well of MultiScreen plate with GF/C glass filters (Millipore) to harvest cells. Cells were washed twice with 200 μl of ice-cold BAB and the plate was kept at 55° C. for 30 min to dry filters. The filter in the well was punched out to a counting tube and 2 ml of Ultima Gold XR Packard) was added. [^3H]-radio activity in the filter was measured by a liquid scintillation counter (Beckman, USA). [Iloprost-Induced cAMP Production Assay in HEL Cells] (Assay 2) HEL cells were collected with centrifugation and washed with cAMP assay buffer (CAB: Hank's balanced salt solution, 17 mM Hepes, 0.1% bovine serum albumin, 1 mM IBMX, 0.4% DMSO, and 1 mM L-ascorbic acid sodium salt (pH 7.4)). Cells were suspended at the density of 2.5×10^5 cells/ml in CAB, and twenty thousand cells in 80 μl aliquot of cell suspension were put in a well of 96 well plate (Falcon). Then, 10 μl of compound solution diluted with 1% DMSO in CAB or buffer alone was added. The plate was incubated at 37° C. for 30 min. Then, another 10 μl containing 100 nM iloprost in CAB or buffer alone was added and further incubated at 37° C. for 30 min. cAMP content in the well was measured by, a cAMP ELISA kit (Applied Biosystems, USA). The data corresponds to the compounds as yielded by solid phase synthesis and thus to levels of purity of about 40 to 90%. For practical reasons, the compounds are grouped in three classes of activity as follows: In vitro activity grade=A≦0.1 μM<B≦1 μM<C
# T1 sequence (P43119 whole entry): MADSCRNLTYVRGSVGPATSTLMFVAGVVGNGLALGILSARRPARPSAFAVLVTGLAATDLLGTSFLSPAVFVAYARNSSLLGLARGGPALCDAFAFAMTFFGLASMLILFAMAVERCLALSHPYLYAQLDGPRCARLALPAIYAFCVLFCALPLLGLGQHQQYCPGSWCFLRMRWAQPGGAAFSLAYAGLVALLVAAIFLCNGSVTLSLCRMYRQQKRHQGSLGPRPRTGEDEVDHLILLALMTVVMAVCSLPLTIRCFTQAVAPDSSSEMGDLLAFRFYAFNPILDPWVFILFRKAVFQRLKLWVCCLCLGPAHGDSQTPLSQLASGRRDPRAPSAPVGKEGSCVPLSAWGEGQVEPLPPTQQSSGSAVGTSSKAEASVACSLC
smiles,measurement,setting,value
"O=C(NC(Cc1ccccc1)C(=O)O)c1ccc(-c2ccc(OCc3ccccc3)c(F)c2)cc1 (centres unmarked) [Example 7-1, 2-[(4′-Benzyloxy-3′-fluorobiphenyl-4-carbonyl)amino]-3-phenylpropionic acid]",In vitro activity grade,PGI2 receptor,A (A≦0.1 μM)
same,melting point,,215 °C
